Reference: patent publication US20230365542A1, “Selective Agonists of 5-HT2A Receptor and Methods of Use” (Yale University, priority 2020, published 2023)
Read-outs that look alike come from different tables or passages of the source.

Experiments:
5-HT2BR [1] = target: T1, 5-HT2BR (Homo sapiens, UniProt P41595); assay: 5-HT2BR binding affinity (Ki), Table 8
T1 construct: expressed in transfected cells; host or cells: Flp-In 293 T-Rex (tetracycline inducible)

5-HT2BR [2] = target: T1, 5-HT2BR; assay: Calcium flux assay (FLIPR, Fluo-4), 5-HT2BR stable cell line; type: cell-based; conditions: for 5-HT2BR Rmax ± S.E.M: value in parentheses
Procedure: Stable cell lines for 5-HT2AR, 5-HT2BR and 5-HT2CR generated using the Flp-In 293 T-Rex Tetracycline inducible system (Invitrogen). Tetracycline-induced cells were seeded in 384-well poly-L-lysine plates at a density of 10,000 cells/well in DMEM containing 1% dialyzed FBS at least 16-24 hr before the calcium flux assay. On the day of the assay, the cells were incubated (20 ul/well) for 1 hr at 37° C. with Fluo-4 Direct dye (Invitrogen) reconstituted in FLIPR buffer (1×HBSS, 2.5 mM probenecid, and 20 mM HEPES, pH 7.4). After dye loading, cells were placed in a FLIPR^TETRA fluorescence imaging plate reader ([…]). Drug dilutions were prepared at 3× final concentration in drug buffer (1×HBSS, 20 mM HEPES, 0.1% BSA, 0.01% ascorbic acid, pH 7.4) and aliquoted into 384-well plates and placed in the FLIPR^TETRA for drug stimulation. The fluidics module and plate reader of the FLIPR^TETRA were programmed to read baseline fluorescence for 10s (1 read/s), then 10 ul of drug/well was added and read for 5 min (1 read/s). Fluorescence in each well was normalized to the average of the first 10 reads (i.e., baseline fluorescence). Then, the maximum-fold increase, which occurred within the first 60 s after drug addition, was determined and fold over baseline was plotted as a function of drug concentration. Data were normalized to % 5-HT stimulation and analyzed using “log(agonist) vs. response” in GraphPad Prism 9.0.

5-HT2AR [3] = target: T2, 5-HT2AR (Homo sapiens, UniProt P28223); assay: Calcium flux assay (FLIPR, Fluo-4), 5-HT2AR stable cell line; type: cell-based; conditions: for 5-HT2AR Rmax ± S.E.M: value in parentheses
T2 construct: expressed in transfected cells; host or cells: Flp-In 293 T-Rex (tetracycline inducible)
T2 sequence (P28223 whole entry): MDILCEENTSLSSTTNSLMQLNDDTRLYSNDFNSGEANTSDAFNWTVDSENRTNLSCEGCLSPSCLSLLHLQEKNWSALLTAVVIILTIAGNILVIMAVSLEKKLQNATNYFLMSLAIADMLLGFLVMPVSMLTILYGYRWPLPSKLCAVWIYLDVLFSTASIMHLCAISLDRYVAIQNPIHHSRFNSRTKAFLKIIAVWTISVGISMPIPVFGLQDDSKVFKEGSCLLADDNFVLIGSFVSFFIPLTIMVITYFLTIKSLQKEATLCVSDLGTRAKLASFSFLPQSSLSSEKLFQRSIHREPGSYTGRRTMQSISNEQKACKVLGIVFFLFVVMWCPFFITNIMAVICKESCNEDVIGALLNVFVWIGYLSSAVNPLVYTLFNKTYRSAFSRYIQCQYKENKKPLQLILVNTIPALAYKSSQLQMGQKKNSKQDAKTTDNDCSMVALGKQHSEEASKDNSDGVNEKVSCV
Procedure: (§1) Stable cell lines for 5-HT2AR, 5-HT2BR and 5-HT2CR generated using the Flp-In 293 T-Rex Tetracycline inducible system (Invitrogen). Tetracycline-induced cells were seeded in 384-well poly-L-lysine plates at a density of 10,000 cells/well in DMEM containing 1% dialyzed FBS at least 16-24 hr before the calcium flux assay. On the day of the assay, the cells were incubated (20 ul/well) for 1 hr at 37° C. with Fluo-4 Direct dye (Invitrogen) reconstituted in FLIPR buffer (1×HBSS, 2.5 mM probenecid, and 20 mM HEPES, pH 7.4). After dye loading, cells were placed in a FLIPR^TETRA fluorescence imaging plate reader (Molecular Dynamics). Drug dilutions were prepared at 3× final concentration in drug buffer (1×HBSS, 20 mM HEPES, 0.1% BSA, 0.01% ascorbic acid, pH 7.4) and aliquoted into 384-well plates and placed in the FLIPR^TETRA for drug stimulation. The fluidics module and plate reader of the FLIPR^TETRA were programmed to read baseline fluorescence for 10s (1 read/s), then 10 ul of drug/well was added and read for 5 min (1 read/s). Fluorescence in each well was normalized to the average of the first 10 reads (i.e., baseline fluorescence). Then, the maximum-fold increase, which occurred within the first 60 s after drug addition, was determined and fold over baseline was plotted as a function of drug concentration. Data were normalized to % 5-HT stimulation and analyzed using “log(agonist) vs. response” in GraphPad Prism 9.0.

5-HT2CR [4] = target: T3, 5-HT2CR (Homo sapiens, UniProt P28335); assay: 5-HT2CR binding affinity (Ki), Table 8
T3 sequence (P28335 33-458): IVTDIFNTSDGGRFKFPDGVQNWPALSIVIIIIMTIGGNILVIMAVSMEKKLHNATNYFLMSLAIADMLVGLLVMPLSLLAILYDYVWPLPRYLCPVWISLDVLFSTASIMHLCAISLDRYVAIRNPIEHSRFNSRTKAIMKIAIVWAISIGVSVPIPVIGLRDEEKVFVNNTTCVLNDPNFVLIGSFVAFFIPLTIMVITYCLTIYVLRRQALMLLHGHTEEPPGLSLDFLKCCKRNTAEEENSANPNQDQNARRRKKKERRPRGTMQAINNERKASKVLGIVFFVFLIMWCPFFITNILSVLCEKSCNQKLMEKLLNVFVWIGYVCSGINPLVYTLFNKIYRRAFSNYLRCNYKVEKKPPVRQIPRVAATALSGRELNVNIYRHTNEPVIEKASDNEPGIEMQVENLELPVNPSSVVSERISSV

5-HT2AR [5] = target: T2, 5-HT2AR; assay: 5-HT2AR binding affinity (Ki), Table 8
5-HT2CR [6] = target: T3, 5-HT2CR; assay: Calcium flux assay (FLIPR, Fluo-4), 5-HT2CR stable cell line; type: cell-based; conditions: for EC50: read-out: 5-HT2CR EC50; for 5-HT2CR Rmax ± S.E.M: value in parentheses
Procedure: as §1

[7] = bracketed value below Ki, read-out: 5-HT2CR pKi ± S.E.M (converted)
[8] = bracketed value below Ki, read-out: 5-HT2BR pKi ± S.E.M (converted)
[9] = bracketed value below EC50, read-out: 5-HT2BR pEC50 ± S.E.M (converted)
[10] = bracketed value below EC50, read-out: 5-HT2AR pEC50 ± S.E.M (converted)
[11] = bracketed value below Ki, read-out: 5-HT2AR pKi ± S.E.M (converted)

T1 sequence (P41595 whole entry): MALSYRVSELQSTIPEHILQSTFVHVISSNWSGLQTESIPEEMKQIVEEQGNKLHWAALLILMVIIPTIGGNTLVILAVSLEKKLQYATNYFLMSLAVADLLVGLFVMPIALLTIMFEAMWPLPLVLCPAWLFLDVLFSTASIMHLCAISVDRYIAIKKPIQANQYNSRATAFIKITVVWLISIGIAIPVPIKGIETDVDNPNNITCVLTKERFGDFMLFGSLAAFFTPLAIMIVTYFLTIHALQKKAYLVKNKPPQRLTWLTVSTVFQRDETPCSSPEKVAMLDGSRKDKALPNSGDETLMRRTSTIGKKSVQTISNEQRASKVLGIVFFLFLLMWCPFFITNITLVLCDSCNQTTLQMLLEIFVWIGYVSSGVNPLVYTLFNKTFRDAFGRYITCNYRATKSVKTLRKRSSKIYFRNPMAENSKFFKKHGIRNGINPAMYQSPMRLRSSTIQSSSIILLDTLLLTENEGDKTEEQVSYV

Row | Compound | Ki (5-HT2BR [1]; read-out: 5-HT2BR Ki) | 5-HT2BR EC50 (5-HT2BR [2]) | EC50 (5-HT2AR [3]; read-out: 5-HT2AR EC50) | 5-HT2AR Rmax ± S.E.M (5-HT2AR [3]) | Ki (5-HT2CR [4]; [7]) | Ki (5-HT2CR [4]; read-out: 5-HT2CR Ki) | Ki (5-HT2AR [5]; read-out: 5-HT2AR Ki) | 5-HT2CR EC50 (5-HT2CR [6]) | EC50 (5-HT2BR [2]; read-out: 5-HT2BR EC50) | 5-HT2BR Rmax ± S.E.M (5-HT2BR [2]) | EC50 (5-HT2CR [6]) | Ki (5-HT2BR [1]; [8]) | EC50 (5-HT2BR [2]; [9]) | EC50 (5-HT2AR [3]; [10]) | 5-HT2CR Rmax ± S.E.M (5-HT2CR [6]) | Ki (5-HT2AR [5]; [11]) | 5-HT2AR EC50 (5-HT2AR [3])
1 | C[C@H]1C=C(c2c[nH]c3ncccc23)CN(C)C1 [compound 34, (S)-3-(1,5-dimethyl-1,2,5,6-tetrahydropyridin-3-yl)-1H-pyrrolo[2,3-b]pyridine] | 640 nM | antagonist | 1140 nM | (7.1% | 741 nM | 750 nM | 1520 nM | antagonist |  |  |  |  |  |  |  |  | 
2 | c1cnc2[nH]cc(C3CCCNC3)c2c1 (single isomer, unassigned) [compound 50, 3-(piperidin-3-yl)-1H-pyrrolo[2,3-b]pyridine] | 620 nM |  | 1170 nM | (65.1% |  | 2730 nM | 5250 nM |  | 680 nM | (47.0% | > 10000 nM |  |  |  |  |  | 
3 | CCCN1CC(c2cncc(Cl)c2)=C[C@H](C)C1 [Compound 16, 5′-Chloro-5-methyl-1-propyl-1,2,5,6-tetrahydro-3,3′-bipyridine] |  |  | 1060 nM | (48.7% | 6310 nM | 6520 nM | 7320 nM |  |  | (74.9% | 6760 nM | 13.2 nM | 20 nM | 1050 nM | (34.4% |  | 
4 | C[C@@H]1C=C(c2c[nH]c3ncccc23)CN(CC2CC2)C1 [compound 45, (R)-3-(1-(cyclopropylmethyl)-5-methyl-1,2,5,6-tetrahydropyridin-3-yl)-1H-pyrrolo[2,3-b]pyridine] | > 10000 nM | antagonist | 450 nM | (25.0% |  | 4410 nM | 2920 nM | antagonist |  |  |  |  |  | 457 nM |  | 2880 nM | 
5 | C[C@H]1C=C(c2c[nH]c3ncccc23)CN(CC2CC2)C1 [compound 46, (S)-3-(1-(cyclopropylmethyl)-5-methyl-1,2,5,6-tetrahydropyridin-3-yl)-1H-pyrrolo[2,3-b]pyridine] | 2140 nM |  |  |  |  | 780 nM | 2440 nM | antagonist | 1170 nM | (43.8% |  |  |  |  |  |  | antagonist
6 | C[C@@H]1C=C(c2c[nH]c3ncccc23)CN(C2CC2)C1 [compound 29, (R)-3-(1-cyclopropyl-5-methyl-1,2,5,6-tetrahydropyridin-3-yl)-1H-pyrrolo[2,3-b]pyridine] | 1660 nM |  | 1360 nM | (63.0% |  | > 10000 nM | 6140 nM |  | 5150 nM | (74.7% |  |  |  |  |  |  | 
7 | C[C@H]1C=C(c2c[nH]c3ncccc23)CN(CCCc2cnn(C)c2)C1 [compound 44, (S)-3-(5-methyl-1-(3-(1-methyl-1H-pyrazol-4-yl)propyl)-1,2,5,6-tetrahydropyridin-3-yl)-1H-pyrrolo[2,3-b]pyridine] | 960 nM |  |  | (40.2% |  | > 10000 nM | 2370 nM |  | 360 nM | (56.2% |  |  | 355 nM | 269 nM |  |  | 
8 | CCCCCN1CC(c2cncc(Cl)c2)=C[C@@H](C)C1 [Compound 9, 5′-chloro-5-methyl-1-pentyl-1,2,5,6-tetrahydro-3,3′-bipyridine] | 560 nM | antagonist | 7630 nM | (40.2% |  | > 10000 nM | > 10000 nM |  |  |  |  | 550 nM |  | 7760 nM |  |  | 
9 | C[C@@H]1C=C(c2c[nH]c3ncccc23)CN(C2COC2)C1 [compound 27, (R)-3-(5-methyl-1-(oxetan-3-yl)-1,2,5,6-tetrahydropyridin-3-yl)-1H-pyrrolo[2,3-b]pyridine] | > 10000 nM | antagonist | > 10000 nM |  |  | > 10000 nM | > 10000 nM |  |  |  |  |  |  |  |  |  | 
10 | CCCN1CC(c2c[nH]c3ncccc23)=C[C@@H](C)C1 [Compound 23, 3-(5-methyl-1-propyl-1,2,5,6-tetrahydropyridin-3-yl)-1H-pyrrolo[2,3-b]pyridine] | 1640 nM | antagonist |  | (65.6% |  | > 10000 nM | 1220 nM |  |  |  |  | 1660 nM |  | 245 nM |  | 1200 nM | 
11 | CCCN1CC(c2cncc(Cl)c2)=C[C@@H](C)C1 [Compound 15, 5′-Chloro-5-methyl-1-propyl-1,2,5,6-tetrahydro-3,3′-bipyridine] |  |  | 5000 nM | (42.1% |  | > 10000 nM | > 10000 nM |  | 130 nM | (50.9% |  | 148 nM | 123 nM |  |  |  | 
12 | C[C@@H]1C=C(c2c[nH]c3ncccc23)CNC1 [compound 38, (R)-3-(5-methyl-1,2,5,6-tetrahydropyridin-3-yl)-1H-pyrrolo[2,3-b]pyridine] |  |  |  | (90.1% |  |  | 680 nM |  |  | (82.9% |  | 295 nM |  |  | (75.0% |  | 
13 | C[C@H]1C=C(c2c[nH]c3ncccc23)CN(CC2(C)COC2)C1 [compound 26, (S)-3-(5-methyl-1-((3-methyloxetan-3-yl)methyl)-1,2,5,6-tetrahydropyridin-3-yl)-1H-pyrrolo[2,3-b]pyridine] | 5830 nM |  | > 10000 nM |  |  | > 10000 nM | > 10000 nM |  | 9230 nM | (71.0% |  | 5750 nM | 9120 nM |  |  |  | 
14 | C[C@@H]1C=C(c2cncc(Cl)c2)CN(CC2(O)COC2)C1 [Compound 7, 3-((5′-Chloro-5-methyl-5,6-dihydro-[3,3′-bipyridin]-1(2H)-yl)methyl)oxetan-3-ol] | 960 nM | antagonist | > 10000 nM |  |  | > 10000 nM | > 10000 nM |  |  |  |  |  |  |  |  |  | 
15 | CCCCN1CC(c2c[nH]c3ncccc23)=C[C@@H](C)C1 [Compound 21, 3-(1-butyl-5-methyl-1,2,5,6-tetrahydropyridin-3-yl)-1H-pyrrolo[2,3-b]pyridine] | 2920 nM | antagonist | 2160 nM | (12.8% |  | > 10000 nM | 2190 nM |  |  |  |  | 4570 nM |  |  |  |  | 
16 | CCCCN1CC(c2cncc(C)c2)=C[C@H](C)C1 (stereo in doubt) [Compound 14, 1-Butyl-5,5′-dimethyl-1,2,5,6-tetrahydro-3,3′-bipyridine] | 30 nM |  | 1830 nM | (57.3% |  | > 10000 nM | > 10000 nM |  |  | (71.7% |  | 30.9 nM | 28.2 nM |  |  |  | 
17 | C[C@@H]1C=C(c2c[nH]c3ncccc23)CN(CC2(C)COC2)C1 [compound 25, (R)-3-(5-methyl-1-((3-methyloxetan-3-yl)methyl)-1,2,5,6-tetrahydropyridin-3-yl)-1H-pyrrolo[2,3-b]pyridine] | 3290 nM |  | 4000 nM | (29.5% |  | > 10000 nM | > 10000 nM |  | 6380 nM | (44.6% |  |  |  |  |  |  | 
18 | CCCCN1CC(c2cncc(Cl)c2)=C[C@H](C)C1 [Compound 12, 1-butyl-5′-chloro-5-methyl-1,2,5,6-tetrahydro-3,3′-bipyridine] |  |  |  | (53.0% |  | > 10000 nM | 4540 nM |  |  | (69.6% |  | 7.08 nM | 22.9 nM | 427 nM |  |  | 
